Holding throughout (format): in vivo
The subject of assay [1] is Lindemia pyxidaria. Description: Test Example 2: herbicidal effect test by application during growth period of paddy rice. The conditions noted are these: 7 days after sowing, 120 g per 10 ares, 14 days after application, read-out: weed inhibition rate. As to the method:
(§1) Herbicidal Effect Test by Application During Growth Period of Paddy Rice
(§2) Wagner pots with an area of 1/10,000 […] were filled with paddy soil, followed by addition of water and incorporation of chemical fertilizer (N:P:K=16:16:16), after which puddling was performed. After that, seeds of Echinochloa crus-galli var. formosensis, broad-leaved weeds (Lindemia pyxidaria, and Monochoria vaginalis), and Scirpus juncoides were sown at a depth of 0 cm to 1 cm, 30 seeds each. Immediately after sowing, the pots were flooded and a water depth of approximately 3 cm was maintained. Subsequent management was conducted in a glass greenhouse. Seven days after sowing, an emulsifiable concentrate prepared according to Formulation Example 5 using the compound shown below was diluted with water, and a specified amount of the diluted solution was applied by dropper. The amount of the active ingredient to be applied was equivalent to 120 g per 10 ares. The test was conducted in duplicate for each chemical concentration group, and the herbicidal effect was evaluated 14 days after chemical application using the same criteria as in Test Example 1.

In assay [2] the test system is Digitaria ciliaris. Description: Test Example 4: herbicidal effect test by stem and leaf treatment in upland field. Particulars: 7 days after sowing, 120 g per 10 ares, 14 days after application; for inhibition at 1200 g/ha: Digitaria ciliaris, read-out: weed inhibition rate. As for the experimental part: (§3) Herbicidal Effect Test by Stem and Leaf Treatment in Upland Field
(§4) Pots with an area of 36 cm^2 were filled with upland soil (alluvial loam), twenty seeds each of weeds of Digitaria ciliaris, Echinochloa crus-galli, Chenopodium album, and Amaranthus viridis were uniformly mixed with the top 1 cm layer of soil and the surface was lightly pressed down. Seven days after sowing, an emulsifiable concentrate prepared according to Formulation Example 5 using the compound shown below was diluted with water, and the diluted solution was sprayed onto the soil surface at a rate of 100 liters per 10 ares. The amount of the active ingredient to be applied was equivalent to 120 g per 10 ares. Fourteen days after chemical application, the herbicidal effect was evaluated according to the same criteria as in Test Example 1.

In assay [3] the test system is Echinochloa crus-galli. The description is as above. Particulars: 7 days after sowing, 120 g per 10 ares, 14 days after application; for inhibition at 1200 g/ha: Echinochloa crus-galli, read-out: weed inhibition rate. As to the method: as §3, §4
Assay [4] deals with Scirpus juncoides. Description: Test Example 1: herbicidal effect test by soil application in paddy rice. The conditions noted are these: 120 g per 10 ares, 14 days after application. As for the experimental part: (§5) Herbicidal Effect Test by Soil Application in Paddy Rice
as §2, with “(Lindernia pyxidaria” for “(Lindemia pyxidaria,”, “Immediately thereafter,” for “Seven days after sowing,”, “ares.” for “ares. The test was conducted in duplicate for each chemical concentration group, and the herbicidal effect was evaluated 14 days after chemical application using the same criteria as in Test Example 1.”
(§6) The present test was conducted in duplicate for each chemical concentration group, and the weed inhibition rate (%) was determined 14 days after chemical application using the following formula (Math. 1).

In assay [5] the test system is Echinochloa crus-galli var. formosensis. The description is as above. Particulars: 120 g per 10 ares, 14 days after application; for inhibition at 1200 g/ha: Echinochloa crus-galli, 336 h, read-out: weed inhibition rate. As for the experimental part:
as §5
as §2, with “(Lindernia pyxidaria” for “(Lindemia pyxidaria,”, “Immediately thereafter,” for “Seven days after sowing,”, “ares.” for “ares. The test was conducted in duplicate for each chemical concentration group, and the herbicidal effect was evaluated 14 days after chemical application using the same criteria as in Test Example 1.”
as §6

The subject of assay [6] is Scirpus juncoides. Description: Test Example 2: herbicidal effect test by application during growth period of paddy rice. Particulars: 7 days after sowing, 120 g per 10 ares, 14 days after application. As to the method:
as §1, §2

The test system of assay [7] is Echinochloa crus-galli var. formosensis. The description is as above. The conditions noted are these: 7 days after sowing, 120 g per 10 ares, 14 days after application; for inhibition at 1200 g/ha: Echinochloa crus-galli, read-out: weed inhibition rate. As for the experimental part:
as §1, §2

Assay [8] relates to Digitaria ciliaris. Description: Test Example 3: herbicidal effect test by soil application in upland field. Particulars: 1 day after sowing, 120 g per 10 ares, 14 days after application; for inhibition at 1200 g/ha: Digitaria ciliaris, read-out: weed inhibition rate. As for the experimental part:
(§7) Herbicidal Effect Test by Soil Application in Upland Field
as §4, with “One day” for “Seven days”

Assay [9] relates to Echinochloa crus-galli. The description is as above. Particulars: 1 day after sowing, 120 g per 10 ares, 14 days after application; for inhibition at 1200 g/ha: Echinochloa crus-galli, read-out: weed inhibition rate. As for the experimental part:
as §7
as §4, with “One day” for “Seven days”

`Cc1ccccc1CO[C@@H]1C[C@]2(C(C)C)O[C@@]1(C)C[C@@H]2F` [1-2, (1R,2S,4S,5R)-2-fluoro-1-isopropyl-4-methyl-5-((2-methylbenzyl)oxy)-7-oxabicyclo[2.2.1]heptane]: in assay [1], the inhibition at 1200 g/ha was not below 80%.

With `CC(C)[C@]12C[C@@H](OCc3ccccc3F)[C@](C)(C[C@@H]1Br)O2` [1-19, (1S,2R,4R,5S)-5-bromo-2-[(2-fluorophenyl)methoxy]-1-methyl-4-isopropyl-7-oxabicyclo[2.2.1]heptane], the inhibition at 1200 g/ha in assay [1] was not below 80%.

`CC(=O)O[C@H]1C[C@]2(C)O[C@@]1(C(C)C)C[C@H]2OCc1ccccc1F` [1-480, [(1R,2S,4S,5R)-5-[(2-fluorophenyl)methoxy]-4-methyl-1-isopropyl-7-oxabicyclo[2.2.1]heptan-2-yl]acetate]: the weed inhibition rate in assay [2], in assay [3], in assay [4], in [5], in assay [6] and in [7] was not below 80% each time. The weed inhibition rate in [8] and in assay [9] was not below 80% in each case.

In the case of `CC(C)=CCO[C@@H]1C[C@]2(C(C)C)O[C@@]1(C)C[C@@H]2Br` [1-672, (1S,2R,4R,5S)-5-bromo-1-methyl-2-(3-methylbut-2-enoxy)-4-isopropyl-7-oxabicyclo[2.2.1]heptane], the inhibition at 1200 g/ha in assay [1] was not below 80%.

Take `CC(C)[C@]12C[C@@H](OCc3cccc(C(F)(F)F)c3)[C@](C)(C[C@@H]1Br)O2` [1-701, (1S,2R,4R,5S)-5-bromo-1-methyl-4-isopropyl-2-[[3-(trifluoromethyl)phenyl]methoxy]-7-oxabicyclo[2.2.1]heptane]: the inhibition at 1200 g/ha in [2], in [3], in [5], in assay [7], in assay [8] and in [9] was not below 80% in each case.

On to `CC(C)[C@]12C[C@@H](OCc3ccccc3C#N)[C@](C)(C[C@@H]1Br)O2` [1-703, 2-[[(1S,2R,4R,5S)-5-bromo-1-methyl-4-isopropyl-7-oxabicyclo[2.2.1]heptan-2-yl]oxymethyl]benzonitrile], for which the inhibition at 1200 g/ha in [1] is not below 80%.

On to `CC(C)[C@]12C[C@@H](OCc3ccccc3F)[C@](C)(C[C@H]1OCC1CC1)O2` [1-921, (1S,2R,4R,5R)-5-(cyclopropylmethoxy)-2-[(2-fluorophenyl)methoxy]-1-methyl-4-isopropyl-7-oxabicyclo[2.2.1]heptane], for which the inhibition at 1200 g/ha in [1] is not below 80%.

For the molecule `C=CCO[C@@H]1C[C@]2(C)O[C@@]1(C(C)C)C[C@H]2OCc1ccccc1F` [1-930, (1S,2R,4R,5R)-2-[(2-fluorophenyl)methoxy]-1-methyl-4-isopropyl-5-prop-2-enoxy-7-oxabicyclo[2.2.1]heptane], the inhibition at 1200 g/ha in [1] was not below 80%.

On to `C#CCO[C@@H]1C[C@]2(C)O[C@@]1(C(C)C)C[C@H]2OCc1ccccc1F` [1-931, (1S,2R,4R,5R)-2-[(2-fluorophenyl)methoxy]-1-methyl-4-isopropyl-5-prop-2-ynoxy-7-oxabicyclo[2.2.1]heptane], for which, in [1], the inhibition at 1200 g/ha is not below 80%.

Turning to `COC1(OC)C[C@]2(C)O[C@@]1(C(C)C)C[C@H]2OCc1ccccc1F` [1-935, (1R,4S,5R)-5-((2-fluorobenzyl)oxy)-1-isopropyl-2,2-dimethoxy-4-methyl-7-oxabicyclo[2.2.1]heptane], the inhibition at 1200 g/ha in assay [1] was not below 80%.

For the molecule `CC(C)[C@]12C[C@@H](OCc3ccccc3F)[C@](C)(C[C@@H]1OCc1ccccc1)O2` [1-1606, (1S,2R,4R,5S)-2-[(2-fluorophenyl)methoxy]-1-methyl-5-phenylmethoxy-4-isopropyl-7-oxabicyclo[2.2.1]heptane], the inhibition at 1200 g/ha in assay [2], in [3], in assay [5], in [7], in assay [8] and in assay [9] was not below 80% in each case.

As for `Cc1ccccc1CO[C@@H]1C[C@]2(C(C)C)O[C@@]1(C)CC2=O` [2-3, (1R,4S,5R)-1-isopropyl-4-methyl-5-((2-methylbenzyl)oxy)-7-oxabicyclo[2.2.1]heptan-2-one], the inhibition at 1200 g/ha in [1] was not below 80%.

Take `Cc1cccc(C)c1CO[C@@H]1C[C@]2(C(C)C)O[C@@]1(C)CC2=O` [2-5, (1R,4S,5R)-5-((2,6-dimethylbenzyl)oxy)-1-isopropyl-4-methyl-7-oxabicyclo[2.2.1]heptan-2-one]: the inhibition at 1200 g/ha in assay [1] is not below 80%.

For the molecule `CC(C)[C@]12C[C@@H](OCc3ccccc3Cl)[C@](C)(CC1=O)O2` [2-11, (1R,4S,5R)-5-((2-chlorobenzyl)oxy)-1-isopropyl-4-methyl-7-oxabicyclo[2.2.1]heptan-2-one], in assay [1], the inhibition at 1200 g/ha is not below 80%.

Regarding `CC(C)[C@]12C[C@@H](OCc3c(F)cccc3F)[C@](C)(CC1=O)O2` [2-20, (1R,4S,5R)-5-((2,6-difluorobenzyl)oxy)-1-isopropyl-4-methyl-7-oxabicyclo[2.2.1]heptan-2-one], the inhibition at 1200 g/ha in assay [1] was not below 80%.

For the molecule `C=C1C[C@]2(C)O[C@@]1(C(C)C)C[C@H]2OCc1ccccc1C` [2-72, (1R,4S,5R)-1-isopropyl-4-methyl-5-((2-methylbenzyl)oxy)-2-methylene-7-oxabicyclo[2.2.1]heptane], the inhibition at 1200 g/ha in [1] was not below 80%.

As to `C=C1C[C@]2(C)O[C@@]1(C(C)C)C[C@H]2OCc1ccccc1F` [2-88, (1R,4S,5R)-5-((2-fluorobenzyl)oxy)-1-isopropyl-4-methyl-2-methylene-7-oxabicyclo[2.2.1]heptane], the inhibition at 1200 g/ha in assay [1] was not below 80%.

In the case of `CC(C)[C@]12C[C@@H](OCc3ccc(F)cc3)[C@](C)(CC1=O)O2` [2-349, (1R,4S,5R)-5-((4-fluorobenzyl)oxy)-1-isopropyl-4-methyl-7-oxabicyclo[2.2.1]heptan-2-one], the inhibition at 1200 g/ha in assay [1] was not below 80%.

Take `CC(C)[C@]12C[C@@H](OCc3cccc(F)c3)[C@](C)(CC1=O)O2` [2-351, (1R,4S,5R)-5-((3-fluorobenzyl)oxy)-1-isopropyl-4-methyl-7-oxabicyclo[2.2.1]heptan-2-one]: the inhibition at 1200 g/ha in [1] was not below 80%.

With `Cc1cccc(CO[C@@H]2C[C@]3(C(C)C)O[C@@]2(C)CC3=O)c1` [2-352, (1R,4S,5R)-1-isopropyl-4-methyl-5-((3-methylbenzyl)oxy)-7-oxabicyclo[2.2.1]heptan-2-one], the inhibition at 1200 g/ha in [1] is not below 80%.

Regarding `CC(C)[C@]12C=C[C@](C)(O1)[C@H](OCc1ccccc1F)C2` [3-5, (1R,4S,5R)-5-[(2-fluorophenyl)methoxy]-4-methyl-1-isopropyl-7-oxabicyclo[2.2.1]hept-2-ene], the inhibition at 1200 g/ha in assay [1] was not below 80%.

Values taken from US20260327240A1, “1,4-CINEOLE DERIVATIVE AND INTERMEDIATE THEREOF, HERBICIDE CONTAINING SAID DERIVATIVE AS ACTIVE INGREDIENT, METHOD FOR USING HERBICIDE, AND METHOD FOR PREPARING AGROCHEMICAL COMPOSITION” (HOKKO CHEMICAL INDUSTRY CO., LTD., priority 2023, published 2026).
